Article PMC8362273 (Molecular cell, 2020)
Entries after “also recorded” stand apart in the source; their conditions may differ. Where two headings read alike, the source gives them in different places.

Key:
Gsk(K383A) = type: biochemical, E. coli; settings: Figure 2F, S4A
Gsk [1] = settings: ref Kawasaki et al., 2000, cited from earlier work; for Km: Mori et al., 1995
[2] = target: Gsk (inosine-guanosine kinase) (Escherichia coli, UniProt P0AEW6); experiment: Isothermal titration calorimetry; type: binding, E. coli
Gsk [3] = experiment: Inosine/guanosine kinase; type: biochemical, E. coli
Gsk [4] = experiment: Inosine kinase; type: biochemical, E. coli; settings: GuaB-coupled assay (Figure 1C)
GuaB (IMP dehydrogenase) = experiment: IMP-dehydrogenase; type: biochemical, E. coli; settings: ppGpp up to 1 mM (Figure S1B)
[5] = target: PurA (adenylosuccinate synthase) (Escherichia coli, UniProt P0A7D4); experiment: ITC of ppGpp with PurA; type: binding, E. coli
[6] = test system: Gsk variants R7A, F321A, K383A, S393A, Q396A; settings: each of R7A, in vitro (Figure 2G)
SEC-MALS [7] = target: the molecule itself; experiment: SEC-MALS
SEC-MALS [8] = target: the molecule itself; experiment: SEC-MALS; remark: listed apart in the source
dynamic light scattering = target: the molecule itself; experiment: dynamic light scattering
crystal structure = target: the molecule itself; experiment: crystal structure

PurA (adenylosuccinate synthase), sequence (P0A7D4 whole entry): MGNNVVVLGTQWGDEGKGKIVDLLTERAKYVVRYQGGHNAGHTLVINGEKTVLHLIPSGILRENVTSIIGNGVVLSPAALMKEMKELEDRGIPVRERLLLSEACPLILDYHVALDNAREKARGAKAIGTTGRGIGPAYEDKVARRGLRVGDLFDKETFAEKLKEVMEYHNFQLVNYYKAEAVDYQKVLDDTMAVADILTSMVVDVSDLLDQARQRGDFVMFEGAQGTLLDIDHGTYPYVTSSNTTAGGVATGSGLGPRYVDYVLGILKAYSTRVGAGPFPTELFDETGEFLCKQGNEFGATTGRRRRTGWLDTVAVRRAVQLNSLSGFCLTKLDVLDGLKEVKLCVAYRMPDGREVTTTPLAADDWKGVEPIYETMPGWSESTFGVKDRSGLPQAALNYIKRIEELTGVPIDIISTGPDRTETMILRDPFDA

## Nc1nc2c(ncn2[C@@H]2O[C@H](COP(=O)(O)OP(=O)(O)O)[C@@H](O)[C@H]2O)c(=O)[nH]1 [GDP]
Gsk(K383A)
  sensitivity of Gsk(K383A) to inhibitor: completely insensitive
Gsk [1]
  feedback inhibition of Gsk: provides feedback inhibition

## Nc1nc2c(ncn2[C@@H]2O[C@H](COP(=O)(O)OP(=O)(O)O)[C@@H](OP(=O)(O)OP(=O)(O)O)[C@H]2O)c(=O)[nH]1 [ppGpp, Guanosine tetraphosphate]
[2]
  Kd: 0.1 µM
[2]; ITC
  affinity for Gsk relative to that for GDP (fold stronger): about 20 fold
[2]; ITC, Gsk pre-saturated with guanosine vs without
  gain in binding heat of ppGpp when Gsk is bound to guanosine: 10.8 kcal/mol
Gsk [3]; 1 mM inosine, varied ATP-Mg
  type of inhibition with respect to ATP: mixed-type inhibitor
Gsk [3]; Lineweaver-Burk plotting, 5 mM ATP-Mg, varied inosine
  type of inhibition with respect to inosine: counter-competitive, or cooperative, inhibitor
Gsk [3]; guanosine kinase activity, 50 nM Gsk (Figure 3J)
  fold inhibition of Gsk by ppGpp binding: ~ 60 fold
Gsk [3]; in vitro, PK-LDH coupled (Figure S1A)
  inhibition of inosine- and guanosine-kinase activities of Gsk: potently inhibited
Gsk [4]
  inhibition of inosine-kinase activity compared with GDP: stronger inhibitor than GDP
GuaB (IMP dehydrogenase)
  inhibition of GuaB: did not observe substantial inhibition; also recorded: could not reproduce the inhibition
[5]
  Kd: 61 µM
Gsk(K383A)
  sensitivity of Gsk(K383A) to inhibitor: completely insensitive
[6]
  loss of sensitivity to ppGpp inhibition (fold less sensitive than WT Gsk): at least 5 fold

## O=c1[nH]cnc2c1ncn2[C@@H]1O[C@H](CO)[C@@H](O)[C@H]1O [inosine]
Gsk [1]; read-out: Km of Gsk for inosine
  Km: 1500 µM

## Nc1nc2c(ncn2[C@@H]2O[C@H](CO)[C@@H](O)[C@H]2O)c(=O)[nH]1 [guanosine]
[2]; ITC, Gsk saturated with ppGpp vs without
  gain in binding heat for guanosine when Gsk is bound to ppGpp: 8.7 kcal/mol
Gsk [1]; read-out: Km of Gsk for guanosine
  Km: 8 µM

## Nc1nc2c(ncn2[C@@H]2O[C@H](COP(=O)(O)OP(=O)(O)OP(=O)(O)O)[C@@H](OP(=O)(O)OP(=O)(O)O)[C@H]2O)c(=O)[nH]1 [pppGpp, Guanosine pentaphosphate]
[2]; ITC (Figure S2I, Table S1), compared with ppGpp
  affinity for Gsk: much weaker affinity

B1: Gsk, inosine-guanosine kinase (E. coli), wild type, traceless after Sumo release (enzyme, UniProt P0AEW6 1-434, looked up)
chain: MKFPGKRKSKHYFPVNARDPLLQQFQPENETSAAWVVGIDQTLVDIEAKVDDEFIERYGLSAGHSLVIEDDVAEALYQELKQKNLITHQFAGGTIGNTMHNYSVLADDRSVLLGVMCSNIEIGSYAYRYLCNTSSRTDLNYLQGVDGPIGRCFTLIGESGERTFAISPGHMNQLRAESIPEDVIAGASALVLTSYLVRCKPGEPMPEATMKAIEYAKKYNVPVVLTLGTKFVIAENPQWWQQFLKDHVSILAMNEDEAEALTGESDPLLASDKALDWVDLVLCTAGPIGLYMAGFTEDEAKRKTQHPLLPGAIAEFNQYEFSRAMRHKDCQNPLRVYSHIAPYMGGPEKIMNTNGAGDGALAALLHDITANSYHRSNVPNSSKHKFTWLTYSSLAQVCKYANRVSYQVLNQHSPRLTRGLPEREDSLEESYWDR
SEC-MALS [7]
  stoichiometry N: 2
SEC-MALS [8]
  stoichiometry N: 4

B2: Gsk(L308S) (enzyme, E. coli, UniProt P0AEW6 1-434, looked up)
chain: MKFPGKRKSKHYFPVNARDPLLQQFQPENETSAAWVVGIDQTLVDIEAKVDDEFIERYGLSAGHSLVIEDDVAEALYQELKQKNLITHQFAGGTIGNTMHNYSVLADDRSVLLGVMCSNIEIGSYAYRYLCNTSSRTDLNYLQGVDGPIGRCFTLIGESGERTFAISPGHMNQLRAESIPEDVIAGASALVLTSYLVRCKPGEPMPEATMKAIEYAKKYNVPVVLTLGTKFVIAENPQWWQQFLKDHVSILAMNEDEAEALTGESDPLLASDKALDWVDLVLCTAGPIGLYMAGFTEDEAKRKTQHPSLPGAIAEFNQYEFSRAMRHKDCQNPLRVYSHIAPYMGGPEKIMNTNGAGDGALAALLHDITANSYHRSNVPNSSKHKFTWLTYSSLAQVCKYANRVSYQVLNQHSPRLTRGLPEREDSLEESYWDR
Dynamic light scattering
  stoichiometry N: 2

B3: Gsk, inosine-guanosine kinase (E. coli), crystallisation construct with N-terminal Gly-Ser-His scar (enzyme)
chain: GSHMKFPGKRKSKHYFPVNARDPLLQQFQPENETSAAWVVGIDQTLVDIEAKVDDEFIERYGLSAGHSLVIEDDVAEALYQELKQKNLITHQFAGGTIGNTMHNYSVLADDRSVLLGVMCSNIEIGSYAYRYLCNTSSRTDLNYLQGVDGPIGRCFTLIGESGERTFAISPGHMNQLRAESIPEDVIAGASALVLTSYLVRCKPGEPMPEATMKAIEYAKKYNVPVVLTLGTKFVIAENPQWWQQFLKDHVSILAMNEDEAEALTGESDPLLASDKALDWVDLVLCTAGPIGLYMAGFTEDEAKRKTQHPLLPGAIAEFNQYEFSRAMRHKDCQNPLRVYSHIAPYMGGPEKIMNTNGAGDGALAALLHDITANSYHRSNVPNSSKHKFTWLTYSSLAQVCKYANRVSYQVLNQHSPRLTRGLPEREDSLEESYWDR
Crystal structure
  binding result: binds
